# Reference: ChEMBL document CHEMBL2157994, “Synthesis and in vitro and in vivo anticancer activity of novel 3-methyl-5H-isoxazolo[5',4':5,6]pyrido[2,3-b]indoles” (Bioorg Med Chem Lett, 2012)
# Active and inactive are the calls of the source. The rule behind the calls is not given here.
# Columns and labels:
# [1] = system: MCF7; experiment: Cytotoxicity against human MCF7 cells after 48 hrs by MTT assay; assay type: functional, cell-based; settings: MCF7, 48 h
# [2] = system: HeLa; experiment: Cytotoxicity against human HeLa cells after 48 hrs by MTT assay; assay type: functional, cell-based
# [3] = system: NCI-H460; experiment: Cytotoxicity against human NCI-H460 cells after 48 hrs by MTT assay; assay type: functional, cell-based; settings: NCI-H460, 48 h
# [4] = Antitumor activity against mouse EAC cells xenografted in Swiss albino mouse assessed as viable tumor cells at 10 mg/kg/day, ip administered for 9 days measured on day 14 by trypan blue exclusion assay (reference value: 7 +/- 0.43 /ml); assay type: functional, Ehrlich; settings: route intraperitoneal
# [5] = Antitumor activity against mouse EAC cells xenografted in Swiss albino mouse assessed as increase in life span at 10 mg/kg/day, ip administered for 9 days relative to vehicle-treated control; assay type: functional, Ehrlich; settings: route intraperitoneal
# [6] = system: Mus musculus; experiment: Hepatoprotective activity in Swiss albino mouse xenografted with mouse EAC cells assessed as total protein level at 10 mg/kg/day, ip administered for 9 days measured on day 14 (reference value: 7.54 +/- 0.14 mg/dL); assay type: functional, Ehrlich; settings: route intraperitoneal
# [7] = system: Mus musculus; experiment: Toxicity in Swiss albino mouse xenografted with mouse EAC cells assessed as RBC level at 10 mg/kg/day, ip administered for 9 days measured on day 14 (reference value: 2.36 +/- 0.13 million/mm3); assay type: organism-based, Ehrlich; set-up: route intraperitoneal; settings: in vivo, 216 h
# [8] = system: Mus musculus; experiment: Toxicity in Swiss albino mouse xenografted with mouse EAC cells assessed as WBC level at 5 mg/kg/day, ip administered for 9 days measured on day 14 (reference value: 20.66 +/- 0.81 10^3/mm3); assay type: organism-based, Ehrlich; set-up: route intraperitoneal; settings: in vivo, 216 h
# [9] = system: Mus musculus; experiment: Toxicity in Swiss albino mouse xenografted with mouse EAC cells assessed as body weight at 5 mg/kg/day, ip administered for 9 days measured on day 14 (reference value: 13.57 +/- 0.8 g); assay type: organism-based, Ehrlich; set-up: route intraperitoneal; settings: in vivo, 216 h
# [10] = system: Mus musculus; experiment: Toxicity in Swiss albino mouse xenografted with mouse EAC cells assessed as body weight at 10 mg/kg/day, ip administered for 9 days measured on day 14 (reference value: 13.57 +/- 0.8 g); assay type: organism-based, Ehrlich; set-up: route intraperitoneal; settings: in vivo, 216 h
# [11] = system: Mus musculus; experiment: Hepatoprotective activity in Swiss albino mouse xenografted with mouse EAC cells assessed as SGOT level at 5 mg/kg/day, ip administered for 9 days measured on day 14 (reference value: 112 +/- 1.42 IU/L); assay type: functional, Ehrlich; settings: route intraperitoneal
# [12] = system: Mus musculus; experiment: Hepatoprotective activity in Swiss albino mouse xenografted with mouse EAC cells assessed as total protein level at 5 mg/kg/day, ip administered for 9 days measured on day 14 (reference value: 7.54 +/- 0.14 mg/dL); assay type: functional, Ehrlich; settings: route intraperitoneal
# [13] = system: Mus musculus; experiment: Toxicity in Swiss albino mouse xenografted with mouse EAC cells assessed as RBC level at 5 mg/kg/day, ip administered for 9 days measured on day 14 (reference value: 2.36 +/- 0.13 million/mm3); assay type: organism-based, Ehrlich; set-up: route intraperitoneal; settings: in vivo, 216 h
# [14] = system: Mus musculus; experiment: Toxicity in Swiss albino mouse xenografted with mouse EAC cells assessed as WBC level at 10 mg/kg/day, ip administered for 9 days measured on day 14 (reference value: 20.66 +/- 0.81 10^3/mm3); assay type: organism-based, Ehrlich; set-up: route intraperitoneal; settings: in vivo, 216 h
# [15] = Antitumor activity against mouse EAC cells xenografted in Swiss albino mouse assessed as packed cell volume at 10 mg/kg/day, ip administered for 9 days measured on day 14 (reference value: 2.2 +/- 0.26 mL); assay type: functional, Ehrlich; settings: route intraperitoneal
# [16] = Antitumor activity against mouse EAC cells xenografted in Swiss albino mouse assessed as tumor volume at 5 mg/kg/day, ip administered for 9 days measured on day 14 (reference value: 3.53 +/- 0.85 mL); assay type: functional, Ehrlich; settings: route intraperitoneal
# [17] = Antitumor activity against mouse EAC cells xenografted in Swiss albino mouse assessed as tumor volume at 10 mg/kg/day, ip administered for 9 days measured on day 14 (reference value: 3.53 +/- 0.85 mL); assay type: functional, Ehrlich; settings: route intraperitoneal
# [18] = Antitumor activity against mouse EAC cells xenografted in Swiss albino mouse assessed as non-viable tumor cells at 5 mg/kg/day, ip administered for 9 days measured on day 14 by trypan blue exclusion assay (reference value: 1.02 +/- 0.09 /ml); assay type: functional, Ehrlich; settings: route intraperitoneal
# [19] = Antitumor activity against mouse EAC cells xenografted in Swiss albino mouse assessed as non-viable tumor cells at 10 mg/kg/day, ip administered for 9 days measured on day 14 by trypan blue exclusion assay (reference value: 1.02 +/- 0.09 /ml); assay type: functional, Ehrlich; settings: route intraperitoneal
# [20] = system: Mus musculus; experiment: Hepatoprotective activity in Swiss albino mouse xenografted with mouse EAC cells assessed as SGPT level at 10 mg/kg/day, ip administered for 9 days measured on day 14 (reference value: 57.84 +/- 0.3 IU/L); assay type: functional, Ehrlich; settings: route intraperitoneal
# [21] = Antitumor activity against mouse EAC cells xenografted in Swiss albino mouse assessed as viable tumor cells at 5 mg/kg/day, ip administered for 9 days measured on day 14 by trypan blue exclusion assay (reference value: 7 +/- 0.43 /ml); assay type: functional, Ehrlich; settings: route intraperitoneal
# [22] = system: Mus musculus; experiment: Hepatoprotective activity in Swiss albino mouse xenografted with mouse EAC cells assessed as SGOT level at 10 mg/kg/day, ip administered for 9 days measured on day 14 (reference value: 112 +/- 1.42 IU/L); assay type: functional, Ehrlich; settings: route intraperitoneal
# [23] = system: Mus musculus; experiment: Toxicity in Swiss albino mouse xenografted with mouse EAC cells assessed as haemoglobin level at 10 mg/kg/day, ip administered for 9 days measured on day 14 (reference value: 5.54 +/- 0.734 g%); assay type: organism-based, Ehrlich; set-up: route intraperitoneal; settings: in vivo, 216 h
# [24] = Antitumor activity against mouse EAC cells xenografted in Swiss albino mouse assessed as increase in life span at 5 mg/kg/day, ip administered for 9 days relative to vehicle-treated control; assay type: functional, Ehrlich; settings: route intraperitoneal
# [25] = system: Mus musculus; experiment: Toxicity in Swiss albino mouse xenografted with mouse EAC cells assessed as haemoglobin level at 5 mg/kg/day, ip administered for 9 days measured on day 14 (reference value: 5.54 +/- 0.734 g%); assay type: organism-based, Ehrlich; set-up: route intraperitoneal; settings: in vivo, 216 h
# [26] = system: Ehrlich; experiment: Anticancer activity against mouse EAC cells xenografted in Swiss albino mouse assessed as decrease in ascitic fluid volume relative to tumor control; assay type: functional
# [27] = system: Mus musculus; experiment: Hepatoprotective activity in Swiss albino mouse xenografted with mouse EAC cells assessed as SGPT level at 5 mg/kg/day, ip administered for 9 days measured on day 14 (reference value: 57.84 +/- 0.3 IU/L); assay type: functional, Ehrlich; settings: route intraperitoneal
# [28] = Antitumor activity against mouse EAC cells xenografted in Swiss albino mouse assessed as packed cell volume at 5 mg/kg/day, ip administered for 9 days measured on day 14 (reference value: 2.2 +/- 0.26 mL); assay type: functional, Ehrlich; settings: route intraperitoneal
smiles,measurement,setting,value
Cc1noc2cc3c(nc12)[nH]c1c(Cl)cccc13,IC50,[1],54.5 µg/mL
same,IC50,[2],55.6 µg/mL
same,IC50,[3],52.3 µg/mL
Cc1noc2cc3c(nc12)[nH]c1c(C)cccc13,Activity,[4],2.97 ×10⁷ /ml
same,Activity,[5],75%
same,Activity,[6],4.77 mg/dL
same,IC50,[1],22.5 µg/mL
same,Activity,[7],4.14 million/mm3
same,Activity,[8],17.65 ×10³ /mm3
same,IC50,[2],23.6 µg/mL
same,Activity,[9],9.76 g
same,Activity,[10],5.93 g
same,Activity,[11],106.3 IU/L
same,Activity,[12],6.43 mg/dL
same,Activity,[13],3.34 million/mm3
same,Activity,[14],15.25 ×10³ /mm3
same,Activity,[15],0.86 mL
same,Activity,[16],2.13 mL
same,Activity,[17],1.4 mL
same,Activity,[18],2.31 ×10⁷ /ml
same,Activity,[19],4.2 ×10⁷ /ml
same,Activity,[20],41.06 IU/L
same,Activity,[21],4.74 ×10⁷ /ml
same,Activity,[22],101.06 IU/L
same,Activity,[23],8.88 g%
same,Activity,[24],36.36%
same,Activity,[25],7.09 g%
same,Activity,[26],Active
same,Activity,[27],55.1 IU/L
same,Activity,[28],1.36 mL
same,IC50,[3],20.4 µg/mL
Cc1noc2cc3c(nc12)[nH]c1ccc(Br)cc13,IC50,[1],60.4 µg/mL
same,IC50,[2],61.1 µg/mL
same,IC50,[3],63.2 µg/mL
Cc1ccc2[nH]c3nc4c(C)noc4cc3c2c1,Activity,[4],5.2 ×10⁷ /ml
same,Activity,[5],44.4%
same,Activity,[6],6.63 mg/dL
same,IC50,[1],18.8 µg/mL
same,Activity,[7],3.66 million/mm3
same,Activity,[8],19.19 ×10³ /mm3
same,IC50,[2],19.7 µg/mL
same,Activity,[9],11.23 g
same,Activity,[10],8.36 g
same,Activity,[11],106.1 IU/L
same,Activity,[12],7.18 mg/dL
same,Activity,[13],2.93 million/mm3
same,Activity,[14],16.58 ×10³ /mm3
same,Activity,[15],1.33 mL
same,Activity,[16],2.43 mL
same,Activity,[17],1.63 mL
same,Activity,[18],1.62 ×10⁷ /ml
same,Activity,[19],2.07 ×10⁷ /ml
same,Activity,[20],47.46 IU/L
same,Activity,[21],6.43 ×10⁷ /ml
same,Activity,[22],98.6 IU/L
same,Activity,[23],7.3 g%
same,Activity,[24],11.08%
same,Activity,[25],6.26 g%
same,Activity,[26],Active
same,Activity,[27],54 IU/L
same,Activity,[28],1.8 mL
same,IC50,[3],16.7 µg/mL
Cc1noc2cc3c(nc12)[nH]c1ccccc13,IC50,[1],53.4 µg/mL
same,IC50,[2],54.5 µg/mL
same,IC50,[3],49.2 µg/mL
Cc1noc2cc3c(nc12)[nH]c1ccc(Cl)cc13,IC50,[1],49.1 µg/mL
same,IC50,[2],49.3 µg/mL
same,IC50,[3],36.4 µg/mL
COc1ccc2[nH]c3nc4c(C)noc4cc3c2c1,IC50,[1],46.5 µg/mL
same,IC50,[2],48.3 µg/mL
same,IC50,[3],45.2 µg/mL
Cc1noc2cc3c(nc12)[nH]c1ccc(F)cc13,IC50,[1],51.3 µg/mL
same,IC50,[2],50.5 µg/mL
same,IC50,[3],52.4 µg/mL
